Measured values reported in patent US20240293359A1, “PROPHYLACTIC OR THERAPEUTIC DRUG FOR PARKINSON'S DISEASE” (Kyowa Pharma Chemical Co., Ltd., priority 2021, published 2024).
In brackets after ≈: the same amount, converted by molar mass. One block for each compound: values may come before it.

Assays:
[1] = tested on: dopamine oxidation accelerated in the presence of Fe^3+; experiment: Suppression test of dopamine oxidation accelerated in presence of iron ions; assay type: biochemical; conditions: dopamine 2 mmol/L, Fe^3+ 2 mmol/L, hydrogen peroxide 1 moL/L, 0.2 M phosphate buffer pH 6.5, 25° C., 6 to 9 hours
Procedure: For a test, dopamine hydrochloride (DA·HCl), iron(III) nitrate 9-hydrate (Fe(NO3)3·9H2O) as Fe^3+ source, hydrogen peroxide solution as oxidant, glutathione trisulfide 2-hydrate, lipoic acid trisulfide, pantethine trisulfide, or N,N′-diacetyl-L-cysteine trisulfide as trisulfide compound were used.
A method of preparing each substance is as follows. • 10 mM DA-HCl aqueous solution: prepared by dissolving DA·HCl in purified water. • 20 mM Fe^3+ solution: prepared by dissolving Fe(NO3)3·9H2O in 5 mmol/L H2SO4. • 40 mM glutathione trisulfide solution: prepared by dissolving glutathione trisulfide 2-hydrate in 0.2 mol/L phosphate buffer solution (pH=6.5). • 40 mM lipoic acid trisulfide solution: prepared by dissolving lipoic acid trisulfide in 0.2 mol/L phosphate buffer solution (pH=6.5). • 400 mM pantethine trisulfide solution: prepared by dissolving pantethine trisulfide in 0.2 mol/L phosphate buffer solution (pH==6.5). • 40 mM N,N′-diacetyl-L-cysteine trisulfide: prepared by dissolving N,N′-diacetyl-L-cysteine trisulfide in 0.2 mol/L phosphate buffer solution (pH=6.5).
The pre-prepared preparation solution of each substance (mentioned above) and 0.2 M phosphate buffer solution (pH=6.5) were mixed in a 50 mL or 5 mL test tube to prepare 20 mL or 2 mL reaction solution so that each substance has the following concentration in the reaction solution. • Dopamine: 2 mmol/L • Fe^3+: 2 mmol/L • Hydrogen peroxide: 1 moL/L • Glutathione trisulfide: 3 concentrations (5, 10 or 20 mmol/L) • Lipoic acid trisulfide: 2 concentrations (10 or 20 mmol/L) • Pantethine trisulfide: 3 concentrations (100, 150 or 200 mmol/L) • N,N′-diacetyl-L-cysteine trisulfide: 3 concentrations (5, 10 or 20 mmol/L)
The reaction solution was stirred at 25° C., 500 rpm for 6 to 9 hours. The dopamine concentration in the reaction solution was quantified with high performance liquid chromatography (HPLC).
The conditions for HPLC is as follows. • Detector: Ultraviolet absorptiometer (measuring wavelength: 280 nm) • Column: Inertsil ODS-2 (4.6 mm I.D.×150 mm, 5 μm) • Column temperature: constant temperature around 35° C. • Mobile phase: prepared by adding 0.2 mol/L citric acid aqueous solution to 0.2 mol/L disodium hydrogenphosphate aqueous solution to adjust to pH 3.0. • Flow rate: 0.7 mL/min • Amount infused: 20 μL • Area measurement range: for 30 minutes after infusion of sample solution Preparation of sample solution: prepared by diluting 100 μL reaction solution 10-fold with water to form sample solution • Retention time: Dopamine (DA) approximately 7 minutes

[2] = Solubility in water at 20° C.; assay type: physicochemical; conditions: free lipoic acid trisulfide

SMILES: O=C(O)CCCCC1CCSSS1 (racemic) [lipoic acid trisulfide]
suppression of dopamine oxidation in the presence of Fe^3+ (dopamine concentration by HPLC, FIG. 2) ([1]; lipoic acid trisulfide 10 or 20 mmol/L): suppressed the dopamine oxidation

solubility [2]: 300 µg/mL (≈ 1260 µM)
SMILES: O=C(O)CCCC[C@@H]1CCSSS1 [Lipoic acid trisulfide R body, (R)-lipoic acid trisulfide]

SMILES: CC(C)(CO)[C@@H](O)C(=O)NCCC(=O)NCCSSSCCNC(=O)CCNC(=O)[C@H](O)C(C)(C)CO [pantethine trisulfide]
suppression of dopamine oxidation in the presence of Fe^3+ (dopamine concentration by HPLC, FIG. 3) ([1]; pantethine trisulfide 100, 150 or 200 mmol/L): suppressed the dopamine oxidation

SMILES: CC(=O)N[C@@H](CSSSC[C@H](NC(C)=O)C(=O)O)C(=O)O [N,N′-diacetyl-L-cysteine trisulfide]
suppression of dopamine oxidation in the presence of Fe^3+ (dopamine concentration by HPLC, FIG. 4) ([1]; N,N′-diacetyl-L-cysteine trisulfide 5, 10 or 20 mmol/L): suppressed the dopamine oxidation

SMILES: N[C@@H](CCC(=O)N[C@@H](CSSSC[C@H](NC(=O)CC[C@H](N)C(=O)O)C(=O)NCC(=O)O)C(=O)NCC(=O)O)C(=O)O [Glutathione trisulfide, glutathione trisulfide]
suppression of dopamine oxidation in the presence of Fe^3+ (dopamine concentration by HPLC, FIG. 1) ([1]; glutathione trisulfide 5, 10 or 20 mmol/L): suppressed the dopamine oxidation
